Reference: ChEMBL document CHEMBL1201862, “PubChem BioAssay data set” (2004)
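Test compounds were applied to cells in 96-well plates for 48 hours at 5 doses. GI50 = concentration required for 50% inhibition of growth.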 Calls of active or inactive are those of the source. No stated cut-off is given here; in the data, active = GI50 up to about 1.1 µM and inactive = higher.

How the values were obtained:
Assay in all cases: DTP human tumour cell line panel, 48 h
A498 = system: A498
DU-145 = system: DU-145
T47D = system: T47D
UACC-62 = system: UACC-62
A549 = system: A549
RXF 393 = system: RXF 393
IGROV-1 = system: IGROV-1
MDA-MB-231 = system: MDA-MB-231
M14 = system: M14
OVCAR-5 = system: OVCAR-5
MCF7 = system: MCF7
HOP-62 = system: HOP-62
SNB-75 = system: SNB-75
NCI-H522 = system: NCI-H522
U-251 = system: U-251
PC-3 = system: PC-3
SK-OV-3 = system: SK-OV-3
TK-10 = system: TK-10
LOX IMVI = system: LOX IMVI
BT-549 = system: BT-549

Row | SMILES | GI50 (A498) | GI50 (DU-145) | GI50 (T47D) | GI50 (UACC-62) | GI50 (A549) | GI50 (RXF 393) | GI50 (IGROV-1) | GI50 (MDA-MB-231) | GI50 (M14) | GI50 (OVCAR-5) | GI50 (MCF7) | GI50 (HOP-62) | GI50 (SNB-75) | GI50 (NCI-H522) | GI50 (U-251) | GI50 (PC-3) | GI50 (SK-OV-3) | GI50 (TK-10) | GI50 (LOX IMVI) | GI50 (BT-549)
1 | N=C(N)NS(=O)(=O)c1ccc(NNc2c3ccccc3nc3c(C(=O)Nc4ccc(S(=O)(=O)Nc5ncccn5)cc4)cccc23)cc1 | > 100 µM (inactive) | 60.1 µM (inactive) | 39 µM (inactive) | 21.2 µM (inactive) | 47.8 µM (inactive) | 29 µM (inactive) | 18.2 µM (inactive) | 60.1 µM (inactive) | 20.4 µM (inactive) | 74.8 µM (inactive) | 31.5 µM (inactive) | 45.3 µM (inactive) | > 100 µM (inactive) | 19.3 µM (inactive) | 43.7 µM (inactive) | 33.7 µM (inactive) |  |  |  | 
2 | CCCCNC(=S)Nn1c(-c2ccccc2)nc2ccccc2c1=O | > 100 µM (inactive) |  |  | > 100 µM (inactive) | > 100 µM (inactive) | 24 µM (inactive) | > 100 µM (inactive) |  | > 100 µM (inactive) | > 100 µM (inactive) |  | > 100 µM (inactive) | 41.7 µM (inactive) | 86.3 µM (inactive) | > 100 µM (inactive) |  | > 100 µM (inactive) | > 100 µM (inactive) | 74.1 µM (inactive) | 
3 | N[C@H](C(=O)O)[C@@H](Cl)CC(=O)O | > 100 µM (inactive) |  |  | > 100 µM (inactive) | > 100 µM (inactive) | > 100 µM (inactive) | > 100 µM (inactive) |  | > 100 µM (inactive) | > 100 µM (inactive) |  | > 100 µM (inactive) | > 100 µM (inactive) | > 100 µM (inactive) | > 100 µM (inactive) |  | > 100 µM (inactive) | > 100 µM (inactive) | > 100 µM (inactive) | 
4 | CC[N+]1(C)CCC(O)(c2ccc(C)cc2)C(C(=O)c2ccc(C)cc2)C1 (configuration not stated) | > 100 µM (inactive) | > 100 µM (inactive) |  | > 100 µM (inactive) | > 100 µM (inactive) | 35.4 µM (inactive) | > 100 µM (inactive) | 26.7 µM (inactive) | 44.8 µM (inactive) | 31 µM (inactive) | 16.4 µM (inactive) | > 100 µM (inactive) |  | 23.7 µM (inactive) | > 100 µM (inactive) | > 100 µM (inactive) | > 100 µM (inactive) | 20.2 µM (inactive) |  | > 100 µM (inactive)
5 | O=C1C=CC2(CCC23C=CC(=O)O3)O1 (configuration not stated) | > 100 µM (inactive) |  |  | > 100 µM (inactive) | > 100 µM (inactive) | > 100 µM (inactive) | > 100 µM (inactive) |  | > 100 µM (inactive) | > 100 µM (inactive) |  | > 100 µM (inactive) | > 100 µM (inactive) | 51.6 µM (inactive) | > 100 µM (inactive) |  | > 100 µM (inactive) | > 100 µM (inactive) | > 100 µM (inactive) | 
6 | CC(=O)c1ccc2c(c1)oc(=O)n2CCN(C)C | > 100 µM (inactive) |  |  | > 100 µM (inactive) |  | > 100 µM (inactive) | 32.1 µM (inactive) | > 100 µM (inactive) | > 100 µM (inactive) | > 100 µM (inactive) | > 100 µM (inactive) | > 100 µM (inactive) | 21.7 µM (inactive) |  | > 100 µM (inactive) | > 100 µM (inactive) | > 100 µM (inactive) | > 100 µM (inactive) | > 100 µM (inactive) | > 100 µM (inactive)
7 | CC(OC(C)(C)C)[C@H](NC(=O)OCc1ccccc1)C(=O)NC(OCc1ccccc1)[C@H]1COC(C)(C)O1 (some centres not stated) | > 10 µM (inactive) | > 100 µM (inactive) |  | > 10 µM (inactive) | 39.3 µM (inactive) | 21.8 µM (inactive) | > 10 µM (inactive) | > 10 µM (inactive) | > 10 µM (inactive) | > 10 µM (inactive) |  | > 10 µM (inactive) | > 10 µM (inactive) | > 10 µM (inactive) | > 10 µM (inactive) | > 10 µM (inactive) | > 10 µM (inactive) | > 10 µM (inactive) | > 10 µM (inactive) | > 10 µM (inactive)
8 | N#C/C(=C/n1c(=S)[nH]c2ccccc21)C(N)=O | > 100 µM (inactive) | > 100 µM (inactive) | > 100 µM (inactive) | > 100 µM (inactive) | > 100 µM (inactive) | > 100 µM (inactive) | > 100 µM (inactive) | > 100 µM (inactive) | > 100 µM (inactive) | > 100 µM (inactive) | > 100 µM (inactive) | > 100 µM (inactive) | > 100 µM (inactive) | > 100 µM (inactive) | > 100 µM (inactive) | > 100 µM (inactive) | > 100 µM (inactive) |  | > 100 µM (inactive) | 
9 | CN1C2=C(CC3=C1CC(C)(C)CC3=O)C(=O)CC(C)(C)C2 | > 100 µM (inactive) |  |  | > 100 µM (inactive) | > 100 µM (inactive) |  | > 100 µM (inactive) |  | > 100 µM (inactive) | > 100 µM (inactive) | > 100 µM (inactive) |  | > 100 µM (inactive) |  | > 100 µM (inactive) | > 100 µM (inactive) | > 100 µM (inactive) | > 100 µM (inactive) | > 100 µM (inactive) | > 100 µM (inactive)
10 | CNc1cccc2c1C(C)C[C@]1(C)C(=O)Nc3ccccc3[C@H]21 (some centres not stated) | 24 µM (inactive) | 39.1 µM (inactive) | 41.1 µM (inactive) | 37.7 µM (inactive) | 20 µM (inactive) | 23.2 µM (inactive) | 35.8 µM (inactive) | 20.6 µM (inactive) | 20.2 µM (inactive) | 31.1 µM (inactive) | 22.3 µM (inactive) | 19.8 µM (inactive) | 12.1 µM (inactive) | 20.5 µM (inactive) |  | 27.4 µM (inactive) |  | 13.8 µM (inactive) | 15.8 µM (inactive) | 
11 | COc1ccccc1N(CN1C(=O)CCC1C(=O)O)C(C)=O (configuration not stated) | > 100 µM (inactive) | > 100 µM (inactive) | > 100 µM (inactive) | > 100 µM (inactive) | > 100 µM (inactive) | 74.5 µM (inactive) | 0.138 µM (active) | > 100 µM (inactive) | > 100 µM (inactive) | > 100 µM (inactive) | > 100 µM (inactive) | > 100 µM (inactive) | > 100 µM (inactive) | > 100 µM (inactive) | > 100 µM (inactive) | > 100 µM (inactive) | > 100 µM (inactive) | > 100 µM (inactive) | > 100 µM (inactive) | 
12 | CC1=Nc2ccccc2C1C(Cc1ccccc1N)c1c(C)[nH]c2ccccc12 (configuration not stated) | 16 µM (inactive) |  |  | 13.5 µM (inactive) | 18.3 µM (inactive) | 20.2 µM (inactive) | 17.4 µM (inactive) |  | 15 µM (inactive) | 17.6 µM (inactive) |  | 14.4 µM (inactive) | 17.5 µM (inactive) | 14 µM (inactive) | 16.8 µM (inactive) |  | 24.6 µM (inactive) | 16.9 µM (inactive) | 15 µM (inactive) | 
13 | CCc1cccc(C(C)C)c1NC(=O)C(=O)C(Cc1nc2ccccc2nc1O)C(=O)OC (configuration not stated) | > 100 µM (inactive) |  |  | > 100 µM (inactive) | > 100 µM (inactive) | > 100 µM (inactive) | > 100 µM (inactive) |  | > 100 µM (inactive) | > 100 µM (inactive) |  | > 100 µM (inactive) | 65.6 µM (inactive) | 98.4 µM (inactive) | > 100 µM (inactive) |  | > 100 µM (inactive) | > 100 µM (inactive) | 45 µM (inactive) | 
14 | COc1c2c3c4c(c(OC)c(=O)c5c(O)cc(OC)c(c6c(OC)cc(O)c(c1=O)c63)c54)C(C(C)O)C2C(C)O (configuration not stated) | 0.918 µM (active) | 2.43 µM (inactive) | 1.18 µM (inactive) | 0.953 µM (active) | 0.735 µM (active) | 0.471 µM (active) | 0.853 µM (active) | 1.84 µM (inactive) | 1.07 µM (active) | 1.28 µM (inactive) | 1.03 µM (active) | 0.689 µM (active) | 0.518 µM (active) | 0.415 µM (active) | 0.405 µM (active) | 0.594 µM (active) | 1.31 µM (inactive) | 1.72 µM (inactive) | 0.883 µM (active) | 
15 | Nc1nc2c(ncn2C2C=CC(COS(N)(=O)=O)C2)c(=O)[nH]1 (configuration not stated) |  | > 100 µM (inactive) | > 100 µM (inactive) | > 100 µM (inactive) | > 100 µM (inactive) | > 100 µM (inactive) | > 100 µM (inactive) | > 100 µM (inactive) | > 100 µM (inactive) | > 100 µM (inactive) | > 100 µM (inactive) | > 100 µM (inactive) | > 100 µM (inactive) |  | > 100 µM (inactive) | > 100 µM (inactive) | > 100 µM (inactive) | > 100 µM (inactive) | > 100 µM (inactive) | 
16 | CCOC(=O)C(CC/C=C\c1ccccc1)N1CCC[C@H]1C(=O)OC (some centres not stated) | > 100 µM (inactive) |  |  | > 100 µM (inactive) | > 100 µM (inactive) | > 100 µM (inactive) | > 100 µM (inactive) |  | > 100 µM (inactive) | > 100 µM (inactive) |  | > 100 µM (inactive) | > 100 µM (inactive) | > 100 µM (inactive) | > 100 µM (inactive) |  | > 100 µM (inactive) | > 100 µM (inactive) | > 100 µM (inactive) | 
17 | C=C1C(=O)O[C@H]2C(=O)[C@H](C)CCC/C(C)=C/CC[C@@]3(C)O[C@@H]3C[C@@H]12 | 18.4 µM (inactive) | 2.56 µM (inactive) | 2.01 µM (inactive) | 5.06 µM (inactive) | 5.82 µM (inactive) |  | 2.76 µM (inactive) | 10.7 µM (inactive) | 1.67 µM (inactive) | 5.6 µM (inactive) | 3.02 µM (inactive) | 11.6 µM (inactive) |  | 1.67 µM (inactive) | 2.67 µM (inactive) | 6.76 µM (inactive) | 16.4 µM (inactive) | 0.135 µM (active) | 1.49 µM (inactive) | 
